Read-outs that look alike come from different tables or passages of the source.
What was measured:
[1] = tested on: B16F10 melanoma tumor cell line; assay: Cell death by AnnexinV/DAPI staining 48 hours after drug treatment; type: cell-based, mouse; settings: for cell death by DAPI and Annexin V staining: at the concentrations used
Description: For assessment of cell death, floating and attached cells were harvested after 48 hours of treatment with the indicated chemotherapeutic drugs. Attached cells were detached using 5 mM EDTA in PBS. The recovered cells were centrifuged at 250×g for 5 minutes, washed once in PBS containing 0.9 mM Ca2+ and 0.5 mM Mg2+ and then stained with AnnV-FITC for 15 minutes in Annexin binding buffer at room temperature according to the manufacturer's protocol (Biolegend). Cells were co-stained with DAPI at a final concentration of 1 μg/ml for 2 minutes in Annexin binding buffer, brought to a final volume of 500 ul using PBS containing 0.9 mM Ca2^+ and 0.5 mM Mg2^+ and analyzed by flow cytometry.
To identify how DNA-damaging chemotherapy could be optimally used to enhance anti-tumor immune function, cytotoxicity assays were performed using the B16F10 melanoma tumor cell line expressing ovalbumin (B16-Ova). Cells were treated with clinically used chemotherapeutic agents followed by assaying for cell death by DAPI and Annexin V staining 48 hours later.

[2] = Cell viability (survival) assay with CellTiter-Glo, 48 hours; type: cell-based, mouse; settings: mouse, B16F10 melanoma tumor cells, 48 hours, normalized to DMSO-treated control cells
Description: (§1) For assays of survival, 15,000 cells were plated per well in a 96-well plate in 100 μl media with 5 replicates per condition. Wells along the four edges of the plate were not used. Following cell attachment, the indicated drugs were added in an equal volume of media, and incubated for an additional 48 hours. The media was then removed and replaced with 100 ul of fresh media at room temperature. Following a 30 minute incubation at room temperature, 50 μl of CellTiter-Glo reagent was added, followed by 2 minutes of gentle mixing. The plate was incubated at room temperature for an additional 10 minutes. 100 μl of supernatant was transferred to a 96-well white opaque plate and luminescence was read on a Tecan microplate reader. Values were normalized to those of DMSO-treated control cells.

B16-Ova cells [3] = assay: In vitro cross presentation assay: drug-treated B16-Ova cells, BMDC and OT-1 CD8+ T-cells, IFN-γ+ T-cells by flow cytometry; type: cell-based, mouse
Description: (§2) B16-Ova or MC-38 Ova cells were treated with various doses of chemotherapeutic drugs for 24 h followed by extensive washing in IMDM (10% FBS, P/S). Subsequently 1×10^6 treated cells were co-cultured with 2.5×10^5 BMDC per well of a 24-well plate for each condition tested. After 24 hours of co-culture, supernatants were removed from each well and the BMDC washed 2-3 times in T-cell media (RPMI containing 10% FBS, 20 mM HEPES, 1 mM sodium pyruvate, 55 uM b-mercaptoethanol, 2 mM L-glutamine, nonessential amino acids and antibiotics). CD8+OT-I T-cells isolated from spleens of OT-I mice were then co-cultured with the BMDC at 125,000 T-cells per well to achieve an effector to target ratio of 0.5. Where indicated, BMDC and/or T-cells were also exposed to chemotherapy drugs. After a 12-15 h incubation, IFN-g producing T-cells were identified and quantified by intra-cellular cytokine staining and flow cytometry using a BD LSR II or Fortessa flow cytometer. Cells were first gated for CD3 expression, then re-gated for CD8 and IFNg expression.
An experimental system was developed to assess dendritic cell-mediated T-cell priming using the B16-Ova cells, in combination with primary bone-marrow derived dendritic cells (BMDC) and OT-I CD8+ T-cells expressing a TCR transgene that specifically recognizes the Ova-derived peptide […] (SEQ ID NO:1) in the context of H2-Kb (OT-1) (Clarke, et al., Immunol Cell Biol., 78(2):110-7 (2000); Hogquist, et al., Cell, 76(1):17-27 (1994)). […] The treated B16-Ova cells/BMDC co-culture was then incubated with purified CD8+ T-cells obtained from the spleens of OT-1 mice, and the appearance of IFNg+CD8 T-cells was measured 12-15 hours later by intracellular staining and subsequent quantification using flow cytometry.

MC-38-Ova cells = assay: In vitro cross presentation assay: drug-treated MC-38-Ova cells, BMDC and OT-1 CD8+ T-cells; type: cell-based, mouse
Description: as §2

B16-Ova cells [4] = assay: HMGB1 in cell culture media by ELISA; type: cell-based, mouse; settings: for HMGB1 (ng/ml) MEAN: culture media 24-48 hours after treatment
Description: Cell-free cell culture media was then analyzed by ELISA for HMGB1 according to the manufacturer's protocol.

B16-Ova cells [5] = assay: ATP levels in cell-free culture media by CellTiter-Glo; type: cell-based, mouse; settings: for ATP (nM) MEAN: culture media 24-48 hours after treatment
Description: For measurement of ATP levels, cell-free culture media obtained as above was analyzed by CellTiter-Glo according to the manufacturer's protocol. Values were converted to ATP concentrations using a standard curve generated using pure ATP.

p38MAPK = assay: Western blotting of cell lysates with anti-phospho-p38 antibody; type: cell-based, mouse; settings: B16-Ova cells
[6] = tested on: CT26 mouse colon cancer cells; settings: previously reported; cited from earlier work
B16-Ova cells [7] = assay: Calreticulin surface exposure by flow cytometry; settings: for CALR (%): 24 hours after treatment, representative experiment
[8] = tested on: B16F10 melanoma tumor cell line; assay: Cell viability (survival) assay with CellTiter-Glo, 48 hours; type: cell-based, mouse; settings: at the concentrations used
Description: as §1

Question: What does the source list for `COc1cccc2c1C(=O)c1c(O)c3c(c(O)c1C2=O)C[C@@](O)(C(=O)CO)C[C@@H]3O[C@H]1C[C@H](N)[C@H](O)[C@H](C)O1` [Dox, doxorubicin]?
Answer: cell death ([1]; 10 μM and 50 μM): high levels of cell death; cell death by DAPI and Annexin V staining ([1]; 48 hours): caused varying extents of apoptotic and non-apoptotic cell death; cytotoxicity at 10 µM ([1]; Mus musculus, B16-F10, 10 uM, 48 hours, read-out: AnnV+DAPI+ (%) Mean): 48%; cytotoxicity at 10 µM ([1]; Mus musculus, B16-F10, 10 uM, 48 hours, read-out: AnnV+DAPI− (%) Mean): 31.6%; cytotoxicity at 10 µM ([1]; Mus musculus, B16-F10, 10 uM, 48 hours, read-out: AnnV−DAPI+ (%) Mean): 0.04%; viability at 10 µM ([1]; Mus musculus, B16-F10, 10 uM, 48 hours, read-out: AnnV−DAPI− (%) Mean): 20.4%; cytotoxicity at 50 µM ([1]; Mus musculus, B16-F10, 50 uM, 48 hours, read-out: AnnV+DAPI+ (%) Mean): 52.1%; cytotoxicity at 50 µM ([1]; Mus musculus, B16-F10, 50 uM, 48 hours, read-out: AnnV+DAPI− (%) Mean): 27.1%; cytotoxicity at 50 µM ([1]; Mus musculus, B16-F10, 50 uM, 48 hours, read-out: AnnV−DAPI+ (%) Mean): 0.04%; viability at 50 µM ([1]; Mus musculus, B16-F10, 50 uM, 48 hours, read-out: AnnV−DAPI− (%) Mean): 20.8%; viability at 48 h, 10 µM ([2]; 10 uM): 0.505%; viability at 48 h, 50 µM ([2]; 50 uM): 0.126%; activating cells (B16-Ova cells [3]; 0.5 μM and 1.0 μM): effective at activating cells; activating cells (B16-Ova cells [3]; 10 μM and 50 μM): not effective at activating cells; inducing DC-mediated IFN-γ in T-cells (B16-Ova cells [3]; 10 and 50 uM (Table 3, Table 4)): ineffective; % CD3+CD8+IFN-γ+ T-cells MEAN (B16-Ova cells [3]; B16-Ova cells treated with 10 uM for 24 h): 0.13%; % CD3+CD8+IFN-γ+ T-cells MEAN (B16-Ova cells [3]; B16-Ova cells treated with 50 uM for 24 h): 0.28%; IFN-gamma production in CD8+ T-cells (B16-Ova cells [3]; specific doses): promote IFN-gamma production in CD8+ T-cells; % CD3+CD8+IFN-γ+ T-cells MEAN (MC-38-Ova cells; MC-38-Ova cells treated with 10 uM for 24 h): 1.217%; % CD3+CD8+IFN-γ+ T-cells MEAN (MC-38-Ova cells; MC-38-Ova cells treated with 50 uM for 24 h): 0.08667%; HMGB1 (ng/ml) MEAN (B16-Ova cells [4]; 10 uM): 77.83 ng/mL; HMGB1 (ng/ml) MEAN (B16-Ova cells [4]; 50 uM): 57.75 ng/mL; HMGB1 release into the media (B16-Ova cells [4]; 24-48 hours post-treatment window): high levels of HMGB1 release; ATP (nM) MEAN (B16-Ova cells [5]; 10 uM): 1.11 nM; ATP (nM) MEAN (B16-Ova cells [5]; 50 uM): 0.83 nM; ATP release (B16-Ova cells [5]; after 24 hours of treatment): Substantial ATP release; p38MAPK activation (p38MAPK): p38MAPK activation; immunogenic cell death / calreticulin exposure [6]: induce calreticulin exposure; CALR (%) (B16-Ova cells [7]; 10 uM): 4.97%; CALR (%) (B16-Ova cells [7]; 50 uM): 2.82%; level of externalized calreticulin (B16-Ova cells [7]; 24 hours of drug exposure): lowest levels

Question: For `CC(=O)O[C@H]1C(=O)[C@@]2(C)[C@H]([C@H](OC(=O)c3ccccc3)[C@]3(O)C[C@H](OC(=O)[C@H](O)[C@@H](NC(=O)c4ccccc4)c4ccccc4)C(C)=C1C3(C)C)[C@]1(OC(C)=O)CO[C@@H]1C[C@@H]2O` [Pac, paclitaxel], which “cell death by DAPI and Annexin V staining” value ([1]; 48 hours) is on record?
Answer: did not induce substantial amounts of cell death

Question: And the cytotoxicity at 0.2 µM ([1]; Mus musculus, B16-F10, 200 nM, 48 hours, read-out: AnnV+DAPI+ (%) Mean)?
Answer: 4.79%

Question: And the cytotoxicity at 0.2 µM ([1]; Mus musculus, B16-F10, 200 nM, 48 hours, read-out: AnnV+DAPI− (%) Mean)?
Answer: 7.2%

Question: What about the cytotoxicity at 0.2 µM ([1]; Mus musculus, B16-F10, 200 nM, 48 hours, read-out: AnnV−DAPI+ (%) Mean) of the same molecule?
Answer: 2.18%

Question: And the viability at 0.2 µM ([1]; Mus musculus, B16-F10, 200 nM, 48 hours, read-out: AnnV−DAPI− (%) Mean)?
Answer: 85.8%

Question: What about the cytotoxicity at 1 µM ([1]; Mus musculus, B16-F10, 1 uM, 48 hours, read-out: AnnV+DAPI+ (%) Mean) of the same molecule?
Answer: 2.98%

Question: And the cytotoxicity at 1 µM ([1]; Mus musculus, B16-F10, 1 uM, 48 hours, read-out: AnnV+DAPI− (%) Mean)?
Answer: 3.03%

Question: And the cytotoxicity at 1 µM ([1]; Mus musculus, B16-F10, 1 uM, 48 hours, read-out: AnnV−DAPI+ (%) Mean)?
Answer: 2.79%

Question: What about the viability at 1 µM ([1]; Mus musculus, B16-F10, 1 uM, 48 hours, read-out: AnnV−DAPI− (%) Mean) of the same molecule?
Answer: 91.2%

Question: And the viability at 48 h, 0.2 µM ([2]; 0.2 uM)?
Answer: 69.8%

Question: What about the viability at 48 h, 1 µM ([2]; 1 uM) of the same molecule?
Answer: 74%

Question: What about the growth arrest [8] of the same molecule?
Answer: caused some degree of growth arrest

— patent US20210154281A1, “CELL-BASED CANCER VACCINES AND CANCER THERAPIES” (Massachusetts Institute of Technology, priority 2019, published 2021)
